From paper PMC10842878 (Peptides, 2023)
Entries after “also recorded” stand apart in the source; their conditions may differ.

Columns and labels:
[1] = H2O; cited from earlier work
[2] = type: physicochemical; details: 150 μM peptide, 50 mM sodium phosphate buffer pH 7, 37°C, 2 weeks

Row | Compound | Water solubility [1] [mg/mL] | Chemical stability (% of original concentration retained in solution) [2]
1 | C/C1=C2/[N-]C([C@H](CC(N)=O)[C@@]2(C)CCC(=O)NCC(C)O)[C@]2(C)N=C(/C(C)=C3N=C(/C=C4N=C1[C@@H](CCC(N)=O)C\4(C)C)[C@@H](CCC(N)=O)[C@]\3(C)CC(N)=O)[C@@H](CCC(N)=O)[C@]2(C)CC(N)=O.[C-]#N.[C-]#N.[Co] (some centres unmarked) [Cbi, dicyanocobinamide] | 400 | –
2 | HSQGTFTSDYSKYLDSrRAQDFVQWLMNTZ [compound 7] | – | highest chemical stability; also recorded: highest % concentration retained
